Tests used:
[1] = tested on: kaolin-induced paw inflammation; assay: Kaolin paw inflammation model, observed antipyretic, analgesic and anti-inflammatory effects; assay type: in vivo, dog; settings: oral 2 mg/kg; for Maximum effect, analgesia (paw withdrawal time to heat stimulus): 100% = control without inflammation, 2 mg/kg; for Maximum effect, body temperature: % improvement (100% = return to control); for Total duration of the effect, body temperature: time effects superior to placebo
Description: The 12 dogs were regularly trained to get accustomed to experimental and measurements conditions for at least one month before the beginning of the experiment. Furthermore, all the investigators involved received a special training for endpoints measurements. The paw inflammation model used was the kaolin model (1.55 g of Kaolin aseptically injected in the skin under general anesthesia, [15]). The measured endpoints used to evaluate the antipyretic, analgesic and anti-inflammatory effects of the NSAID were the body temperature, the paw circumference, the time to perform a creeping test under a tunnel, the lameness score, the vertical force of the paw on force plates (normalized to the dog’s body weight), the thermal pain threshold and the plantar skin temperature. For body temperature a single measurement was obtained at each time using an electronic thermometer. Paw circumference duplicate measures per time point was done just above the pad using a measuring tape (DMC, Colmar, France). Skin plantar temperature was measured (in degrees Celsius) using an infrared thermometer (Raynger M. Raytek, Fisher Bioblock Scientific - Illkirch – France) at a reference site on the plantar face of the paw, at six different times for each day and measures were performed in triplicate. Data used was the average of the three measurements performed at each time point. Creeping time was measured (in seconds) in a tunnel 6.38 m long, using a stopwatch (digital stopwatch) in triplicate for each time point and creeping speed (m/s) was used as the final measurement for this endpoint. Lameness score was assessed using a numerical rating scale as developed by Giraudel et al.. Vertical normalized force i.e. the maximal vertical force applied on the ground by a hind limb was measured with force plates (SATEL Veto; Patrick Savet, Blagnac, France); for each measurement time, three measures were recorded, the mean values were normalized to the dog’s body weight (Fmax/b.wt., kg/kg) and used in the data analyses. Pain was assessed using a hind paw thermal escape model. The model consisted of exposing the hind limb to a light beam delivered by a Hargreaves apparatus (model 390; IITC Inc., Woodlands Hills, CA). A heat intensity corresponding to 15% of the peak heating value of 150 W was selected. The paw withdrawal time (in seconds) was measured. For each trial, three measures were recorded per measurement time, and the mean of the three measures was used in the data analysis.
The study was conducted according to a classical 2×2 crossover design. Briefly, in period one, half of the dog (3 males and 3 females), received a single oral dose of cimicoxib (approximately 2 mg/kg, one 20 mg capsules – Vetoquinol Lure france) 26.5 h after the induction of kaolin inflammation on the left paw; the other half dogs received a placebo treatment at the same time. In period 2, treatments were crossed over for each dog and inflammation was induced on the right paw. A wash-out delay of at least 5 weeks was applied between the two periods. The treatment (cimicoxib or placebo) was blinded to the investigators.
At least three days before the induction of kaolin inflammation, the PD endpoints were measured twice on the same day to generate negative control values. These endpoints were also measured at 23.5 and 25.5 h after the induction of the inflammation (i.e. before the treatment) to generate positive control values. Subsequently, the PD endpoints were measured at 2, 4, 9, 15 hours after administration (measures on all dogs) and at 22 h and 27 h after administration depending on the presence of further cimicoxib activity.
For PD analysis, a percentage of improvement was calculated for all endpoints (except for the lameness score) following Equation 2:
(2) %improvement=T^+-M/T^+-T^-*100 […]

[2] = tested on: kaolin-induced paw inflammation; assay: Simulation of dose-effect relationship with the PK/PD model (EM dog parameters); settings: simulated, oral, dose-linearity assumed
Procedure: For higher cimicoxib doses, only the duration of the maximum effect was increased. […] Figure 6 Simulated values of the effects of the cimicoxib for different oral doses of cimicoxib for the 4 endpoints modeled using a PK/PD model in the 8 extensive metabolizer dogs. Effects of cimicoxib vs. time (h) were simulated using the corresponding PK/PD model for different oral doses of cimicoxib (from 0.1 to 8 mg/kg) on the rectal temperature (°C), the normalized vertical ground reaction force of the paw, the creeping speed (m/s) and the overall clinical lameness score. PK and PD parameters used for simulations were the means of those obtained in the 8 extensive metabolizer dogs. The thick line was obtained with 2 mg/kg, the dose that has been selected for confirmatory clinical trials.

[3] = tested on: peri-operative pain; pain and inflammation associated with osteoarthritis; settings: inferiority limit 20%, cited from earlier work
[4] = the two groups of dogs together

SMILES: COc1ccc(-c2c(Cl)ncn2-c2ccc(S(N)(=O)=O)cc2)cc1F [cimicoxib]
- Duration of the maximal effect, analgesia ([1]; EM dogs): 7 h (from 2.9 to 9.8 h)
- Duration of the maximal effect, body temperature ([1]; EM dogs): 7 h (from 2.1 to 9.1 h)
- Duration of the maximal effect, creeping speed ([1]; EM dogs): 7 h (from 2.2 to 9.2 h)
- Duration of the maximal effect, paw circumference ([1]; EM dogs): 9 h (from 2.2 to 11.2 h)
- Duration of the maximal effect, skin plantar temperature ([1]; EM dogs): 7 h (from 2.3 to 9.3 h)
- Duration of the maximal effect, vertical normalized force ([1]; EM dogs): 6.9 h (from 2.6 to 9.5 h)
- Total duration of the effect, creeping speed ([1]; EM dogs): 15 h
- Total duration of the effect, paw circumference ([1]; EM dogs): 15 h
- Total duration of the effect, skin plantar temperature ([1]; EM dogs): 13 h
- Total duration of the effect, vertical normalized force ([1]; EM dogs): 16 h
- Maximum effect, analgesia (paw withdrawal time to heat stimulus) ([1]; EM dogs): 232 ± 45%
- Maximum effect, creeping speed ([1]; EM dogs, % improvement): 76 ± 9%
- Maximum effect, paw circumference ([1]; EM dogs, % improvement): 14 ± 2%
- Maximum effect, skin plantar temperature ([1]; EM dogs, % improvement): 38 ± 6%
- Maximum effect, vertical normalized force ([1]; EM dogs, % improvement): 68 ± 7%
- Maximum effect, body temperature ([1]; EM dogs): 84 ± 8%
- Total duration of the effect, body temperature ([1]; EM dogs): 13 h
- Duration of the maximal effect, analgesia ([1]; PM dogs): 8.8 h (from 2.9 to 11.8 h)
- Duration of the maximal effect, body temperature ([1]; PM dogs): 19.6 h (from 2.1 to 21.7)
- Duration of the maximal effect, clinical lameness score ([1]; PM dogs): 10.9 h (from 4.8 to 15.7 h)
- Duration of the maximal effect, creeping speed ([1]; PM dogs): 11.1 h (from 4.2 to 15.3 h)
- Duration of the maximal effect, paw circumference ([1]; PM dogs): 7 h (from 4.2 to 11.2 h)
- Duration of the maximal effect, vertical normalized force ([1]; PM dogs): 11.1 h (from 4.5 to 15.5 h)
- Maximum effect, skin plantar temperature ([1]; PM dogs): No plateau observed
- Total duration of the effect, analgesia ([1]; PM dogs): 23 h
- Total duration of the effect, creeping speed ([1]; PM dogs): 25 h
- Total duration of the effect, paw circumference ([1]; PM dogs): 20 h
- Total duration of the effect, skin plantar temperature ([1]; PM dogs): 22 h
- Total duration of the effect, vertical normalized force ([1]; PM dogs): 28 h
- Maximum effect, analgesia (paw withdrawal time to heat stimulus) ([1]; PM dogs): 152 ± 53%
- Maximum effect, creeping speed ([1]; PM dogs, % improvement): 77 ± 7%
- Maximum effect, paw circumference ([1]; PM dogs, % improvement): 15 ± 3%
- Maximum effect, vertical normalized force ([1]; PM dogs, % improvement): 67 ± 6%
- Maximum effect, body temperature ([1]; PM dogs): 87 ± 9%
- Total duration of the effect, body temperature ([1]; PM dogs): 25 h
- overall maximal effect, body temperature [1, 4]: 86%
- overall maximal effect, creeping speed [1, 4]: 76%
- dose predicted to give a nearly maximal effect, creeping speed [2]: 1.5 mg/kg
- dose predicted to give a nearly maximal effect, ground reaction vertical force [2]: 3 mg/kg
- dose predicted to give a nearly maximal effect, overall clinical lameness score [2]: 2 mg/kg
- dose predicted to give a nearly maximal effect, rectal temperature [2]: 1 mg/kg
- comparison against firocoxib, primary efficacy endpoint ([3]; pain and inflammation associated with osteoarthritis): non-inferiority
- comparison to carprofen on pain during the first 24 hours (composite pain clinical score) ([3]; peri-operative pain, orthopaedic or soft tissue surgery, carprofen 4 mg/kg per day): non-inferiority
